The values below come from patent US7998492B2, “Methods and products related to treatment and prevention of hepatitis C virus infection” (Coley Pharmaceutical Group, Inc., priority 2002, dated 2011).

“Also recorded” adds a separate entry of the source.

Data set [1] relates to PBMCs from normal or HCV-infected subjects. Put plainly: IP-10 secretion by PBMC after 48 h with CpG ODN (ELISA). It is filed as cell-based, human. The conditions noted are these: similar in normal subjects and HCV chronic carriers, FIG. 7. As to the method: (§1) Peripheral blood mononuclear cells (PBMCs) were purified by centrifugation over Ficoll-Hypaque (Amersham Pharmacia Biotech, Uppsala, Sweden) at 400×g for, 35 min. Cells were resuspended at a concentration of 10×10^6/ml in RPMI complete media containing 10% normal human AB serum (heat inactivated) and 1% penicillin/streptomycin.
(§2) Freshly isolated PBMCs were resuspended at 10×10^6/ml (2× final concentration) and 100 μl of cells were added to each well of a 96 well flat-bottom plate containing an equal volume of ODN solution (2× final desired concentration). A range of concentrations (1, 3, 6 μg/ml) was tested for each ODN. Cells were incubated at 37° C. with 5% CO2. After 48 h, cell supernatants were collected from each well and frozen at −80° C. until assayed.
(§3) IFN-α, IP-10, IL-10 and IFN-levels in supernatants were measured using commercial ELISA Kits (R&D Systems, Minneapolis, Minn., USA; IP-10, Cat# DIP 100, IL-10, Cat# D1000, IFN-g Cat# DIF50 or PBL Biomedical, IFN-α Cat# 4110S). When measured ELISA values were below the detection limit of the kit as specified by the manufacturer, a value equal to the lowest detectable limit was entered into data tables.
Background: In an ELISA, binding on a coated surface is turned into a signal by an enzyme label.

The test system is the same in data set [2]. Put plainly: IFN-γ secretion by PBMC after 48 h with CpG ODN (ELISA). The class given is cell-based, human. As to conditions: HCV-infected and normal PBMCs similar, FIG. 5/6. Here is the method: as §1, §2, §3
The conditions of data set [3]: adjuvant to a commercial hepatitis B vaccine, phase I/II; cited from earlier work.
The test system of data set [4] is PBMCs from normal subjects. Put plainly: IFN-α secretion by PBMC from normal subjects after 48 h with CpG ODN (ELISA). It is filed as cell-based, human. As to conditions: for IFN-α secretion level: PBMC from normal volunteers, 48 h, FIG. 1/3; for R, linear regression of number of pDC against amount of IFN-α secreted: normal subjects, pDC number by FACS.
Source text: (§4) All oligonucleotide stocks were resuspended in TE buffer at pH 8.0 (OmniPer®; EM Science, Gibbstown, N.J.). Dilutions of various ODNs were made in RPMI 1640 complete media (Gibco BRL, Grand Island, N.Y.) containing 10% heat inactivated, normal human AB serum (Wisent Inc, St. Bruno, QC) and 1% penicillin/streptomycin (Gibco BRL, Grand Island, N.Y.) just prior to their use in cell assays. For the exogenous IFN-α synergy experiments, Intron A (Interferon Alfa-2b, DIN 02223406, Schering Canada Inc., Pointe-Claire, Quebec, Canada) was added to the ODN solutions to give final concentrations of 125 or 1000 IU/ml. Ribavirin (CAS 36791-04-5, Calbiochem, CN Biosciences Inc., La Jolla, Calif., USA) was reconstituted with sterile distilled water to produce a 500 μm stock and diluted in media as described above, to give a final concentration of 5 μm in wells. Cells were incubated at 37° C. with 5% CO2. After 48 h, cell supernatants were collected from each well and frozen at −80° C.
as §1, §2, §3

For data set [5], the system named is B cells in PBMCs from HCV-infected or normal donors. Put plainly: B-cell proliferation (3H-thymidine, stimulation index). It is filed as cell-based, human. The conditions noted are these: HCV-infected and normal populations, 5 days, FIGS. 8 and 9. As to the method:
as §1
Cells were isolated as described above and resuspended at 1×10^6/ml in complete RPMI media 100 μl of cells were added to each well of round-bottom 96 well plates. ODN solutions (100 μl) were added to wells to give the selected range of final concentrations (1, 3, 6 μg/ml). Cells were cultured for 5 days and then pulsed with ^3H-Thymidine (1 μCi/well) for 18 h, before harvesting onto filter paper for measuring radioactivity. Results are reported as stimulation index (SI) with respect to untreated media control.

Data set [6] concerns PBMCs from HCV-infected subjects. Put plainly: IFN-α secretion by PBMC from HCV chronic carriers after 48 h with CpG ODN (ELISA). It is filed as cell-based, human. The conditions noted are these: for IFN-α secretion level: PBMC from HCV chronic carriers, 48 h, FIG. 1/3/4; for R, linear regression of number of pDC against amount of IFN-α secreted: HCV infected subjects, pDC number by FACS.
Source text: as §4, §1, §2, §3

Data set [7] relates to PBMCs from normal or HCV infected subjects. Put plainly: IFN-α secretion by PBMC with Intron A, Ribavirin or CpG alone or in combination (ELISA). The class given is cell-based, human.
Source text: as §4, §1, §2, §3

Regarding “TCGTCGTTTTGTCGTTTTGTCGTT [SEQ ID NO. 2]”, the IP-10 secretion level result in data set [1] is listed as “lowest”. Moreover, the IFN-γ secretion level entry in data set [2] was “moderate amounts”. In addition, in data set [3], the “function as vaccine adjuvant” value is listed as “functions well as a vaccine adjuvant”. For the same compound, the IFN-α secretion level entry is listed as “only low levels” in data set [4], “the same as those obtained with the normal PBMCs” in data set [6] (listed as B) and “lower levels” in data set [6] (listed as Class B). The B cell stimulation result in data set [5] is recorded as “strongly activated B cells”.
For “TCGTCGTTTTCGGCGGCCGCCG (chemistry not given here) [SEQ ID NO. 4, C class CpG ODN]”, the IP-10 secretion level result in data set [1] was “next highest”. The “synergy with exogenous IFN-α for IFN-α secretion” value in data set [7] (PBMCs from HCV infected subjects, combination with Intron-A) was “synergy”. Besides, in data set [2], the IFN-γ secretion level entry is on record as “high concentrations”. The IFN-α secretion level result is reported as “moderately high levels” in data set [4] and “the same as those obtained with the normal PBMCs; also recorded: higher levels” in data set [6] (listed as C). The figures for the “R, linear regression of number of pDC against amount of IFN-α secreted” value (“R, linear regression of number of pDC” for short) in data set [4] and in data set [6] were 0.58 and 0.08, respectively. In data set [5], the B cell stimulation result was “strongly activated B cells”.
As to “G-G-GGACGACGTCGTGG-G-G-G-G-G (DNA GGGGACGACGTCGTGGGGGGG; chemistry not given here) [SEQ ID NO. 1, A class CpG ODN]”, the IP-10 secretion level result in data set [1] is given as “Highest levels”. Besides, the IFN-γ secretion level result in data set [2] is given as “low levels”. Further, in data set [4], the IFN-α secretion level entry is on record as “very high levels” and the “R, linear regression of number of pDC” value is 0.43. Also, the B cell stimulation entry in data set [5] is on record as “poor stimulator of B cells”. Further, in data set [6] (HCV chronic carrier PBMC versus normal PBMC, FIG. 1), the “IFN-α induced relative to the normal level” value is listed as “about 50%”. Moreover, in data set [6], the “R, linear regression of number of pDC” value is on record as 0.02 and the IFN-α secretion level result is recorded as “higher levels”.
As for `NC(=O)c1ncn([C@@H]2O[C@H](CO)[C@@H](O)[C@H]2O)n1` [Ribavirin], the “induction of IFN-α secretion” value in data set [7] (HCV-infected PBMCs, on their own or together, FIG. 11) is recorded as “Neither Ribavirin nor Intron A, on their own or together, resulted in the induction of IFN-α secretion”; in data set [7] (PBMCs from normal or HCV infected subjects, alone or in combination), “Neither commercial Intron-A (IFN-α-2b) nor Ribavirin, alone or in combination, were capable of inducing IFN-α secretion”. Besides, in data set [7] (combined with CpG ODN), the “effect on the efficacy of CpG” value is “reduced the efficacy of CpG”. The immunostimulatory activity entry in data set [7] (human PBMCs) is listed as “no immunostimulatory activity”. Further, in data set [7] (in combination with Intron A), the “endogenous IFN-α production” value is recorded as “did not enhance endogenous IFN-α production”.
